In ChEMBL document CHEMBL4043189, “Design, synthesis, and evaluation of substituted nicotinamide adenine dinucleotide (NAD+) synthetase inhibitors as potential antitubercular agents” (Bioorg Med Chem Lett, 2017):
pIC50: −log10 of the molar value. Converted amounts (≈) assume the structure as drawn.

Tested on: Mycobacterium tuberculosis
Assay: Antitubercular activity against Mycobacterium tuberculosis H37Rv incubated for 7 days under anaerobic condition measured by broth microdilution method
Type: functional
Details: 168 h

Row | SMILES | MIC
1 | COC(=O)c1cc2cc(OCc3ccccc3)ccc2n1CCCCCCCOC(=O)Cc1ccc([N+](C)(C)C)cc1 | 20 µM

Tested on: not listed separately
Assay: Inhibition of Bacillus anthracis NadE using guanidine-HCl as substrate after 10 mins by HPLC analysis
Details: not given

Row | SMILES | pIC50
2 | O=C(Nc1ccc([N+](=O)[O-])cc1)Nc1ccc(S(=O)(=O)Nc2ccc(Cl)c(Cl)c2)cc1 | 5.19
3 | NCc1ccc(S(=O)(=O)Nc2ccc(NC(=O)Nc3cccc([N+](=O)[O-])c3)cc2)cc1 | 4.82

Tested on: Bacillus anthracis
Assay: Antibacterial activity against Bacillus anthracis Sterne spore forms measured every hour for 5 hrs by broth microdilution method
Type: functional
Details: not given

Row | SMILES | MIC
4 | NCc1ccc(S(=O)(=O)Nc2ccc(NC(=O)Nc3cccc([N+](=O)[O-])c3)cc2)cc1 | > 240 µM

Molecular target: not listed separately
Assay: Inhibition of recombinant Mycobacterium tuberculosis glutamine-dependent NadE using NAAD as substrate assessed as residual activity preincubated for 20 mins followed L-glutamine addition measured over 40 mins by spectrophotometric based PNP enzyme coupled assay
Details: not given

Row | SMILES | pIC50
5 | N#Cc1ccc(NS(=O)(=O)c2ccc(NC(=O)Nc3ccc([N+](=O)[O-])cc3)cc2)cc1 | 3.72
6 | O=C(Nc1ccc([N+](=O)[O-])cc1)Nc1ccc(S(=O)(=O)Nc2ccc([N+](=O)[O-])cc2)cc1 | 4.05
7 | O=C(Nc1ccc([N+](=O)[O-])cc1)Nc1ccc(S(=O)(=O)Nc2ccccc2)cc1 | 3.90
8 | O=C(Nc1ccc([N+](=O)[O-])cc1)Nc1ccc(S(=O)(=O)Nc2cccc([N+](=O)[O-])c2)cc1 | 3.77
9 | O=C(Nc1ccc([N+](=O)[O-])cc1)Nc1ccc(S(=O)(=O)Nc2cccc(C(F)(F)F)c2)cc1 | 3.89
10 | O=C(Nc1ccc([N+](=O)[O-])cc1)Nc1ccc(S(=O)(=O)Nc2ccc(F)cc2)cc1 | 3.77
11 | O=C(Nc1ccc([N+](=O)[O-])cc1)Nc1ccc(S(=O)(=O)Nc2ccc(Cl)c(Cl)c2)cc1 | 3.00
12 | O=C(Nc1ccc([N+](=O)[O-])cc1)Nc1ccc(S(=O)(=O)Nc2ccc(Cl)cc2)cc1 | 3.28
13 | O=C(Nc1ccc([N+](=O)[O-])cc1)Nc1ccc(S(=O)(=O)Nc2ccc(I)cc2)cc1 | 3.43
14 | COc1ccc(NS(=O)(=O)c2ccc(NC(=O)Nc3ccc([N+](=O)[O-])cc3)cc2)cc1 | 3.89
15 | O=C(Nc1ccc([N+](=O)[O-])cc1)Nc1ccc(S(=O)(=O)Nc2ccc(O)cc2)cc1 | 3.80
16 | O=C(Nc1ccc([N+](=O)[O-])cc1)Nc1ccc(S(=O)(=O)Nc2ccc([N+](=O)[O-])c(C(F)(F)F)c2)cc1 | 3.72

Molecular target: not listed separately
Assay: Inhibition of recombinant Mycobacterium tuberculosis NH3-dependent NadE using NAAD as substrate assessed as residual activity preincubated for 20 mins followed NH4Cl addition measured over 40 mins by spectrophotometric based PNP enzyme coupled assay
Details: not given

Row | SMILES | pIC50
17 | O=C(Nc1ccc([N+](=O)[O-])cc1)Nc1ccc(S(=O)(=O)Nc2ccc([N+](=O)[O-])cc2)cc1 | < 3.70
18 | O=C(Nc1ccc([N+](=O)[O-])cc1)Nc1ccc(S(=O)(=O)Nc2ccccc2)cc1 | < 3.70
19 | O=C(Nc1ccc([N+](=O)[O-])cc1)Nc1ccc(S(=O)(=O)Nc2cccc(C(F)(F)F)c2)cc1 | < 3.70
20 | COc1ccc(NS(=O)(=O)c2ccc(NC(=O)Nc3ccc([N+](=O)[O-])cc3)cc2)cc1 | < 3.70

Tested on: Mycobacterium tuberculosis
Assay: Antitubercular activity against Mycobacterium tuberculosis H37Rv ATCC 27294 grown under Middlebrook 7H9 broth after 2 weeks by microscopic analysis
Type: functional
Details: H37Rv ATCC 27294, 336 h

Row | SMILES | MIC
21 | N#Cc1ccc(NS(=O)(=O)c2ccc(NC(=O)Nc3ccc([N+](=O)[O-])cc3)cc2)cc1 | 37 µg/mL (≈ 84.6 µM)
22 | O=C(Nc1ccc([N+](=O)[O-])cc1)Nc1ccc(S(=O)(=O)Nc2ccc([N+](=O)[O-])cc2)cc1 | 37 µg/mL (≈ 80.9 µM)
23 | O=C(Nc1ccc([N+](=O)[O-])cc1)Nc1ccc(S(=O)(=O)Nc2ccccc2)cc1 | 75 µg/mL (≈ 182 µM)
24 | NNC(=O)c1ccncc1 [ISONIAZID] | 0.05 µg/mL (≈ 0.365 µM)
25 | O=C(Nc1ccc([N+](=O)[O-])cc1)Nc1ccc(S(=O)(=O)Nc2cccc([N+](=O)[O-])c2)cc1 | 25 µg/mL (≈ 54.7 µM)
26 | O=C(Nc1ccc([N+](=O)[O-])cc1)Nc1ccc(S(=O)(=O)Nc2cccc(C(F)(F)F)c2)cc1 | 37 µg/mL (≈ 77 µM)
27 | O=C(Nc1ccc([N+](=O)[O-])cc1)Nc1ccc(S(=O)(=O)Nc2ccc(F)cc2)cc1 | 19 µg/mL (≈ 44.1 µM)
28 | O=C(Nc1ccc([N+](=O)[O-])cc1)Nc1ccc(S(=O)(=O)Nc2ccc(Cl)c(Cl)c2)cc1 | 25 µg/mL (≈ 51.9 µM)
29 | O=C(Nc1ccc([N+](=O)[O-])cc1)Nc1ccc(S(=O)(=O)Nc2ccc(Cl)cc2)cc1 | 25 µg/mL (≈ 55.9 µM)
30 | O=C(Nc1ccc([N+](=O)[O-])cc1)Nc1ccc(S(=O)(=O)Nc2ccc(I)cc2)cc1 | 37 µg/mL (≈ 68.7 µM)
31 | COc1ccc(NS(=O)(=O)c2ccc(NC(=O)Nc3ccc([N+](=O)[O-])cc3)cc2)cc1 | 25 µg/mL (≈ 56.5 µM)
32 | O=C(Nc1ccc([N+](=O)[O-])cc1)Nc1ccc(S(=O)(=O)Nc2ccc(O)cc2)cc1 | 37 µg/mL (≈ 86.4 µM)
33 | O=C(Nc1ccc([N+](=O)[O-])cc1)Nc1ccc(S(=O)(=O)Nc2ccc([N+](=O)[O-])c(C(F)(F)F)c2)cc1 | 100 µg/mL (≈ 190 µM)

Tested on: Mycobacterium tuberculosis
Assay: Antitubercular activity against NRP-2 stage of Mycobacterium tuberculosis H37Rv ATCC 27294 grown under glycerol free dubos broth after 7 days by microscopic analysis
Type: functional
Details: H37Rv ATCC 27294, 168 h

Row | SMILES | MIC
34 | N#Cc1ccc(NS(=O)(=O)c2ccc(NC(=O)Nc3ccc([N+](=O)[O-])cc3)cc2)cc1 | 37 µg/mL (≈ 84.6 µM)
35 | O=C(Nc1ccc([N+](=O)[O-])cc1)Nc1ccc(S(=O)(=O)Nc2ccc([N+](=O)[O-])cc2)cc1 | 25 µg/mL (≈ 54.7 µM)
36 | O=C(Nc1ccc([N+](=O)[O-])cc1)Nc1ccc(S(=O)(=O)Nc2ccccc2)cc1 | 12.5 µg/mL (≈ 30.3 µM)
37 | NNC(=O)c1ccncc1 [ISONIAZID] | 0.03 µg/mL (≈ 0.219 µM)
38 | O=C(Nc1ccc([N+](=O)[O-])cc1)Nc1ccc(S(=O)(=O)Nc2cccc([N+](=O)[O-])c2)cc1 | 12.5 µg/mL (≈ 27.3 µM)
39 | O=C(Nc1ccc([N+](=O)[O-])cc1)Nc1ccc(S(=O)(=O)Nc2cccc(C(F)(F)F)c2)cc1 | 50 µg/mL (≈ 104 µM)
40 | O=C(Nc1ccc([N+](=O)[O-])cc1)Nc1ccc(S(=O)(=O)Nc2ccc(F)cc2)cc1 | 25 µg/mL (≈ 58.1 µM)
41 | O=C(Nc1ccc([N+](=O)[O-])cc1)Nc1ccc(S(=O)(=O)Nc2ccc(Cl)c(Cl)c2)cc1 | 50 µg/mL (≈ 104 µM)
42 | O=C(Nc1ccc([N+](=O)[O-])cc1)Nc1ccc(S(=O)(=O)Nc2ccc(Cl)cc2)cc1 | 37 µg/mL (≈ 82.8 µM)
43 | O=C(Nc1ccc([N+](=O)[O-])cc1)Nc1ccc(S(=O)(=O)Nc2ccc(I)cc2)cc1 | 50 µg/mL (≈ 92.9 µM)
44 | COc1ccc(NS(=O)(=O)c2ccc(NC(=O)Nc3ccc([N+](=O)[O-])cc3)cc2)cc1 | 50 µg/mL (≈ 113 µM)
45 | O=C(Nc1ccc([N+](=O)[O-])cc1)Nc1ccc(S(=O)(=O)Nc2ccc(O)cc2)cc1 | 50 µg/mL (≈ 117 µM)
46 | O=C(Nc1ccc([N+](=O)[O-])cc1)Nc1ccc(S(=O)(=O)Nc2ccc([N+](=O)[O-])c(C(F)(F)F)c2)cc1 | 50 µg/mL (≈ 95.2 µM)
